From patent US7732375B2, “Hexyl carboxanilides and their use for controlling fungi” (Bayer CropScience AG, priority 2003, dated 2010)

Test system: Puccinia recondita
Assay: Puccinia test (wheat)/protective
Assay type: in vivo
Settings: wheat; application rate 500 g/ha; solvent/emulsifier a); evaluation 10 days after inoculation
Method: • a) Solvent: 50 parts by weight of N,N-dimethylacetamide Emulsifier: 1 part by weight of alkylaryl polyglycol ether • b) Solvent: 25 parts by weight of N,N-dimethylacetamide Emulsifier: 0.6 part by weight of alkylaryl polyglycol ether To produce a suitable preparation of active compound, 1 part by weight of active compound is mixed with the stated amounts of solvent and emulsifier, and the concentrate is diluted with water to the desired concentration. To test for protective activity, young plants are sprayed with the preparation of active compound at the stated application rate. After the spray coating has dried on, the plants are sprayed with a conidia suspension of Puccinia recondita. The plants remain in an incubation cabin at 20° C. and 100% relative atmospheric humidity for 48 hours. The plants are then placed in a greenhouse at a temperature of about 20° C. and a relative atmospheric humidity of 80% to promote the development of rust pustules. Evaluation is carried out 10 days after the inoculation. 0% means an efficacy which corresponds to that of the control, whereas an efficacy of 100% means that no infection is observed.

`CC(CC(C)(C)C)c1ccccc1NC(=O)c1cn(C)nc1C(F)(F)F` (stereo not drawn) [drawing 117] and `CCC(C)(C)CC(C)c1ccccc1NC(=O)c1cn(C)nc1C(F)(F)F` (stereo not drawn) are the same in Efficacy in %: 100% for the first, 100% for the second.

`CCc1nn(C)c(Cl)c1C(=O)Nc1ccccc1C(C)CC(C)(C)C` (stereo not drawn) [drawing 118] and `Cc1nc(Cl)sc1C(=O)Nc1ccccc1C(C)CC(C)(C)C` (stereo not drawn) are the same in Efficacy in %: 100% for the first, 100% for the second.

`CCC(C)(C)CC(C)c1ccccc1NC(=O)C1=C(C)OCCS1` (stereo not drawn) [drawing 114] and `Cc1nc(C)c(C(=O)Nc2ccccc2C(C)CC(C)(C)C)s1` (stereo not drawn) [drawing 113] are the same in Efficacy in %: 100% for the first, 100% for the second.

Same assay, conditions: wheat; application rate 500 g/ha; solvent/emulsifier b); evaluation 10 days after inoculation

`CC1=C(C(=O)Nc2ccccc2C(C)CC(C)(C)C)SCCO1` (stereo not drawn) [drawing 121] and `Cc1occc1C(=O)Nc1ccccc1C(C)CC(C)(C)C` (stereo not drawn) are the same in Efficacy in %: 100% for the first, 100% for the second.

`Cc1ccsc1C(=O)Nc1ccccc1C(C)CC(C)(C)C` (stereo not drawn) [drawing 119] and `CCC(C)(C)CC(C)c1ccccc1NC(=O)c1ccoc1C` (stereo not drawn) [drawing 122] are the same in Efficacy in %: 100% for the first, 100% for the second.

Test system: Sphaerotheca fuliginea
Assay: Sphaerotheca test (cucumber)/protective
Assay type: in vivo
Settings: protective, application rate 750 g/ha, evaluation 7 days after inoculation
Method: Solvent: 49 parts by weight of N,N-dimethylformamide Emulsifier: 1 part by weight of alkylaryl polyglycol ether To produce a suitable preparation of active compound, 1 part by weight of active compound is mixed with the stated amounts of solvent and emulsifier, and the concentrate is diluted with water to the desired concentration. To test for protective activity, young cucumber plants are sprayed with the preparation of active compound at the stated application rate. 1 day after treatment the plants are inoculated with a spore suspension of Sphaerotheca fuliginea. The plants are then placed in a greenhouse at a relative atmospheric humidity of 70% and a temperature of 23° C. Evaluation is carried out 7 days after the inoculation. 0% means an efficacy which corresponds to that of the control, whereas an efficacy of 100% means that no infection is observed.

First: CC(F)c1nn(C)cc1C(=O)Nc1ccccc1C(C)CC(C)(C)C (stereo not drawn)
Second: Cc1nc(C)c(C(=O)Nc2ccccc2C(C)CC(C)(C)C)s1 (stereo not drawn) [drawing 123]
The Efficacy in % of the first is lower: 90% for the first, 95% for the second.

`Cc1ccsc1C(=O)Nc1ccccc1C(C)CC(C)(C)C` (stereo not drawn) [drawing 124] showed an Efficacy in % of 95%.

Test system: Erysiphe graminis f.sp. hordei
Assay: Erysiphe test (barley)/protective
Assay type: in vivo
Settings: protective, application rate 500 g/ha, evaluation 7 days after inoculation
Method: Solvent: 25 parts by weight of N,N-dimethylacetamide Emulsifier: 0.6 part by weight of alkylaryl polyglycol ether To produce a suitable preparation of active compound, 1 part by weight of active compound is mixed with the stated amounts of solvent and emulsifier, and the concentrate is diluted with water to the desired concentration. To test for protective activity, young plants are sprayed with the preparation of active compound at the stated application rate. After the spray coating has dried on, the plants are dusted with spores of Erysiphe graminis f.sp. hordei. The plants are placed in a greenhouse at a temperature of about 20° C. and a relative atmospheric humidity of about 80% to promote the development of mildew pustules. Evaluation is carried out 7 days after the inoculation. 0% means an efficacy which corresponds to that of the control, whereas an efficacy of 100% means that no infection is observed.

First: CCC(C)(C)CC(C)c1ccccc1NC(=O)C1=C(C)OCCS1 (stereo not drawn) [drawing 128]
Second: CCC(C)(C)CC(C)c1ccccc1NC(=O)c1ccoc1C (stereo not drawn) [drawing 129]
The Efficacy in % of the first is lower: 94% for the first, 100% for the second.

`Cc1nc(C(F)(F)F)c(C(=O)Nc2ccccc2C(C)CC(C)(C)C)s1` (stereo not drawn) [drawing 130] and `Cc1nc(C)c(C(=O)Nc2ccccc2C(C)CC(C)(C)C)s1` (stereo not drawn) [drawing 126] are the same in Efficacy in %: 100% for the first, 100% for the second.

With `Cc1ccsc1C(=O)Nc1ccccc1C(C)CC(C)(C)C` (stereo not drawn) [drawing 127] the Efficacy in % was 100%.

Test system: not listed separately
Assay: logP determination by HPLC on reversed-phase column (C 18), EEC Directive 79/831 Annex V.A8
Assay type: physicochemical
Settings: reversed-phase HPLC column (C 18), pH 2.3, 0.1% aqueous phosphoric acid and acetonitrile, 43° C.
Method: The determination of the logP values given in the preparation examples and tables above is carried out in accordance with EEC Directive 79/831 Annex V.A8 by HPLC (High Performance Liquid Chromatography) on a reversed-phase column (C 18). Temperature: 43° C. The determination is carried out in the acidic range at pH 2.3 using the mobile phases, 0.1% aqueous phosphoric acid and acetonitrile; linear gradient from 10% acetonitrile to 90% acetonitrile. Calibration is carried out using unbranched alkan-2-ones (of 3 to 16 carbon atoms) with known logP values (determination of the logP values by the retention times using linear interpolation between two successive alkanones).

Compared with `Cn1cc(C(=O)Cl)c(C(Cl)Cl)n1` [Example (II-1), 3-dichloromethyl-1-methyl-1H-pyrazole-4-carbonyl chloride], `CC(CC(C)(C)C)c1ccccc1NC(=O)c1cn(C)nc1C(Cl)Cl` (stereo not drawn) [Example 1] is higher in chromatographic logP: 1.8 for the first, 4.02 for the second.

Test system: Venturia inaequalis
Assay: Venturia test (apple)/protective
Assay type: in vivo
Settings: Venturia inaequalis, 240 h, protective, application rate 100 g/ha, evaluation 10 days after inoculation, read-out: Efficacy in %
Method: (§1) • Solvents: 24.5 parts by weight of acetone • 24.5 parts by weight of dimethylacetamide • Emulsifier: 1 part by weight of alkylaryl polyglycol ether
(§2) To produce a suitable preparation of active compound, 1 part by weight of active compound is mixed with the stated amounts of solvents and emulsifier, and the concentrate is diluted with water to the desired concentration.
To test for protective activity, young plants are sprayed with the preparation of active compound at the stated application rate. After the spray coating has dried on, the plants are inoculated with an aqueous conidia suspension of the apple scab pathogen Venturia inaequalis and then remain in an incubation cabin at about 20° C. and 100% relative atmospheric humidity for 1 day.
The plants are then placed in a greenhouse at about 21° C. and a relative atmospheric humidity of about 90%.
(§3) Evaluation is carried out 10 days after the inoculation. 0% means an efficacy which corresponds to that of the control, whereas an efficacy of 100% means that no infection is observed.

`CCC(C)(C)CC(C)c1ccccc1NC(=O)C1=C(C)OCCS1` (stereo not drawn) [drawing 96] and `CC1=C(C(=O)Nc2ccccc2C(C)CC(C)(C)C)SCCO1` (stereo not drawn) [drawing 95] are the same in pest or weed control at 100 g/ha: 100% for the first, 100% for the second.

Going from `CC(CC(C)(C)C)c1ccccc1NC(=O)c1cn(C)nc1Cl` (stereo not drawn) [drawing 101] to `CC(CC(C)(C)C)c1ccccc1NC(=O)c1cn(C)nc1C(F)(F)F` (stereo not drawn) [drawing 99], the pest or weed control at 100 g/ha falls from 100% to 95%.

Going from `CCC(C)(C)CC(C)c1ccccc1NC(=O)c1sccc1C` (stereo not drawn) [drawing 98] to `Cc1ccsc1C(=O)Nc1ccccc1C(C)CC(C)(C)C` (stereo not drawn) [drawing 94], the pest or weed control at 100 g/ha falls from 99% to 96%.

First: CCc1nn(C)c(Cl)c1C(=O)Nc1ccccc1C(C)CC(C)(C)C (stereo not drawn) [drawing 100]
Second: Cc1nc(C(F)(F)F)c(C(=O)Nc2ccccc2C(C)CC(C)(C)C)s1 (stereo not drawn) [drawing 103]
The pest or weed control at 100 g/ha of the first is lower: 92% for the first, 99% for the second.

`CCC(C)(C)CC(C)c1ccccc1NC(=O)c1ccoc1C` (stereo not drawn) [drawing 97] gave a pest or weed control at 100 g/ha of 93%.

Same assay, conditions: protective, application rate 100 g/ha, evaluation 10 days after inoculation

Compound `CC(CC(C)(C)C)c1ccccc1NC(=O)c1cn(C)nc1C(F)(F)F` (stereo not drawn) [drawing 102] has an Efficacy in % of 99%.

Test system: Botrytis cinerea
Assay: Botrytis test (bean)/protective
Assay type: in vivo
Settings: Botrytis cinerea, 48 h, protective, application rate 500 g/ha, evaluation 2 days after inoculation, read-out: Efficacy in %
Method: as §1, §2
To test for protective activity, young plants are sprayed with the preparation of active compound at the stated application rate. After the spray coating has dried on, 2 small pieces of agar colonized by Botrytis cinerea are placed onto each leaf. The inoculated plants are placed in a dark chamber at about 20° C. and 100% relative atmospheric humidity.
2 days after the inoculation, the size of the infected areas on the leaves is evaluated. 0% means an efficacy which corresponds to that of the control, whereas an efficacy of 100% means that no infection is observed.

Compared with `CC1=C(C(=O)Nc2ccccc2C(C)CC(C)(C)C)SCCO1` (stereo not drawn) [drawing 105], `CCC(C)(C)CC(C)c1ccccc1NC(=O)C1=C(C)OCCS1` (stereo not drawn) [drawing 106] is higher in pest or weed control at 500 g/ha: 95% for the first, 100% for the second.

First: CCC(C)(C)CC(C)c1ccccc1NC(=O)c1ccoc1C (stereo not drawn) [drawing 107]
Second: CCC(C)(C)CC(C)c1ccccc1NC(=O)c1sccc1C (stereo not drawn) [drawing 108]
The pest or weed control at 500 g/ha of the first is lower: 88% for the first, 100% for the second.

Going from `CC(CC(C)(C)C)c1ccccc1NC(=O)c1cn(C)nc1C(F)(F)F` (stereo not drawn) [drawing 109] to `CC(CC(C)(C)C)c1ccccc1NC(=O)c1cn(C)nc1Cl` (stereo not drawn) [drawing 110], the pest or weed control at 500 g/ha falls from 100% to 95%.

First: Cc1ccsc1C(=O)Nc1ccccc1C(C)CC(C)(C)C (stereo not drawn) [drawing 104]
Second: Cc1nc(C(F)(F)F)c(C(=O)Nc2ccccc2C(C)CC(C)(C)C)s1 (stereo not drawn) [drawing 112]
The pest or weed control at 500 g/ha of the first is higher: 100% for the first, 95% for the second.

Same assay, conditions: protective, application rate 500 g/ha, evaluation 2 days after inoculation

`CC(CC(C)(C)C)c1ccccc1NC(=O)c1cn(C)nc1C(F)(F)F` (stereo not drawn) [drawing 111] gave an Efficacy in % of 97%.

Test system: Podosphaera leucotricha
Assay: Podosphaera test (apple)/protective
Assay type: in vivo
Settings: 240 h, protective, application rate 100 g/ha, evaluation 10 days after inoculation, read-out: Efficacy in %
Method: as §1, §2
To test for protective activity, young plants are sprayed with the preparation of active compound at the stated application rate. After the spray coating has dried on, the plants are inoculated with an aqueous spore suspension of the apple mildew pathogen Podosphaera leucotricha. The plants are then placed in a greenhouse at about 23° C. and a relative atmospheric humidity of about 70%.
as §3

Compared with `CCc1nn(C)c(Cl)c1C(=O)Nc1ccccc1C(C)CC(C)(C)C` (stereo not drawn) [drawing 90], `CC(CC(C)(C)C)c1ccccc1NC(=O)c1c(C(F)(F)F)nn(C)c1Cl` (stereo not drawn) is higher in pest or weed control at 100 g/ha: 96% for the first, 97% for the second.

First: CCC(C)(C)CC(C)c1ccccc1NC(=O)C1=C(C)OCCS1 (stereo not drawn) [drawing 86]
Second: CCC(C)(C)CC(C)c1ccccc1NC(=O)c1ccoc1C (stereo not drawn) [drawing 87]
The pest or weed control at 100 g/ha of the first is higher: 94% for the first, 91% for the second.

Going from `CCC(C)(C)CC(C)c1ccccc1NC(=O)c1sccc1C` (stereo not drawn) [drawing 88] to `Cc1ccsc1C(=O)Nc1ccccc1C(C)CC(C)(C)C` (stereo not drawn) [drawing 85], the pest or weed control at 100 g/ha falls from 98% to 85%.

Compared with `CC(CC(C)(C)C)c1ccccc1NC(=O)c1cn(C)nc1C(F)(F)F` (stereo not drawn) [drawing 89], `CC(CC(C)(C)C)c1ccccc1NC(=O)c1cn(C)nc1Cl` (stereo not drawn) [drawing 91] is higher in pest or weed control at 100 g/ha: 95% for the first, 100% for the second.

With `Cc1nc(C(F)(F)F)c(C(=O)Nc2ccccc2C(C)CC(C)(C)C)s1` (stereo not drawn) [drawing 93] the pest or weed control at 100 g/ha was 100%.
